Results reported in patent publication US20240345082A1, “IDENTIFICATION AND APPLICATION OF SELECTIVE CELL SURFACE MARKERS AND ADDITIONAL METHODS FOR HUMAN RED/GREEN CONE PHOTORECEPTOR PRECURSOR ENRICHMENT” (Wisconsin Alumni Research Foundation, priority 2023, published 2024).

Assays:
CPP microaggregates [1] = test: Flow cytometric quantification of THRB2:tdTomato-positive red/green CPP cells in CPP microaggregates; assay type: cell-based, human; conditions: CPP microaggregate formation combined with MMC treatment (250 ng/ml), 10 days post microaggregate formation; increased from 17% (unsorted CRR ROs at D60)
CPP microaggregates [2] = test: Ki-67 immunostaining (IHC) of MMC-treated ALCAM/CD166-sorted CPP microaggregates; conditions: for Ki-67 positive cells in CPP microaggregates: 7 dpt

Structure (SMILES): CO[C@@]12[C@H](COC(N)=O)C3=C(C(=O)C(C)=C(N)C3=O)N1C[C@@H]1N[C@@H]12 [MMC, mitomycin C]
- percentage of THRB2:tdTomato-positive red/green CPP cells (CPP microaggregates [1]): 89.5%
- Ki-67 positive cells in CPP microaggregates (CPP microaggregates [2]; 100 ng/mL MMC): few
- Ki-67 positive cells in CPP microaggregates (CPP microaggregates [2]; 250 ng/mL MMC): almost nil
- morphology of CPP microaggregates (CPP microaggregates [2]; 500 ng/mL MMC): noticeable disruption
- Ki-67 positive cells in CPP microaggregates (CPP microaggregates [2]; 500 ng/mL MMC): almost nil
